From US12421220B2, “Bicyclic-substituted glutarimide cereblon binders” (C4 THERAPEUTICS, INC., priority 2022, dated 2025)
Read-outs that look alike come from different tables or passages of the source.

Tests used:
[1] = biological target: T1, CRBN-DDB1 (CRBN_DDB1.3) (Homo sapiens, UniProt Q96SW2); assay: Fluorescence polarization (FP) binding assay, CRBN_DDB1.3 construct; conditions: for Kd: 0.05% PA, 0.1% BSA, read-out: FP CRBN_DDB1.3 0.05% PA, 0.1% BSA ka nM
Method: (§1) Example 2: Fluorescence Polarization (FP) Assay for Screening Compound Ligand Binders of CRBN-DDB1
(§2) Measuring compound ligand binding to CRBN-DDB 1 was carried out using an established sensitive and quantitative in vitro fluorescence polarization (FP) based binding assay. (See, I. J. Enyedy et al, J. Med. Chem., 44: […] [2001]). Compounds were dispensed from serially diluted DMSO stock into black 384-well compatible fluorescence polarization plates using an Echo acoustic dispenser. Compound binding to CRBN-DDB 1 was measured by displacement of an established CRBN binding ligand conjugated to an Alexa Fluor® dye (probe). A […] mixture containing 10nM CRBN-DDB1 and 5 nM probe in 50 mM Hepes, pH 7.4, 200 mM NaCl, 1% DMSO, 0.1% BSA and 0.05% o pluronic acid-127 acid was added to wells containing compound and incubated at room temperature for 60 min. Matching control wells excluding CRBN-DDB 1 were used to correct for background fluorescence. Plates were read on an Envision plate reader with appropriate FP filter sets. The corrected S (perpendicular) and P (parallel) values were used to calculate fluorescence polarization (FP) with the following equation: FP=1000*(S−G*P)/(S+G*P).
(§3) The fractional amount of bound probe (FB) to CRBN-DDB 1 as a function of compound concentration was fitted according to Wang; FEBS Letters 360, (1995), 111-114 to obtain fits for parameter offsets and binding constant (KA) of competitor compound.

[2] = biological target: CRBN-DDB1 (CRBN_DDB1.7) (Homo sapiens, UniProt Q96SW2); assay: Fluorescence polarization (FP) binding assay, CRBN_DDB1.7 construct; conditions: 0.05% PA, 0.1% BSA, read-out: FP CRBN_DDB1.7 0.05% PA, 0.1% BSA ka nM
Method: as §1, §2, §3

[3] = biological target: T1, CRBN-DDB1 (CRBN_DDB1.3); assay: Fluorescence polarization (FP) binding assay, CRBN_DDB1.3 construct; conditions: 0.05% PA (no BSA); benzomorpholine binders; read-out: FP CRBN_DDB1.3 0.05% PA Ka
[4] = biological target: T2, BRD4 (Homo sapiens, UniProt O60885); assay: BRD4 HiBiT degradation assay in 293T.92 (BRD4-HiBiT) cells; format: cell-based; conditions: 293T.92 cells, 24.0 hours
T2 construct: endogenously expressing BRD4 with HiBiT fusion tag via CRISPR; endogenous in cells; host or cells: 293T.92 (BRD4-HiBiT) cells, a CRISPR knock-in made from 293T
From the text: Example 3: BRD4 HiBiT Method
Dulbecco's modified Eagle medium (DMEM) without phenol red and fetal bovine serum (FBS) were purchased from Gibco (Grand Island, NY, USA). Nano-Glo® HiBiT Lytic Assay System was purchased from Promega (Madison, WI, USA). 293T.92 (BRD4-HiBiT) cell line, endogenously expressing BRD4 with HiBiT fusion tag via CRISPR was made internally from the 293T human cell line acquired from American Type Culture Collection (Rockville, MD, USA). Cell culture flasks and 384-well microplates were acquired from VWR (Radnor, PA, USA) or Corning (Corning, NY, USA).
BRD4 degradation was determined based on quantification of luminescent signal using Nano-Glo® HiBiT Lytic Assay kit. Test compounds were added to the 384-well plate from a top concentration of […] with 11 points, half log titration in duplicates. 293T.92 cells were added into 384-well plates at a cell density of 15000 cells per well. The plates were kept at 37° C. with 5% CO2 for […]. The cells treated in the absence of the test compound were the negative control and the cells without Nano-Glo® HiBiT Lytic reagent were the positive control. After 24-hour incubation, Nano-Glo® HiBiT Lytic Assay reagents were added to the cells. Luminescence was acquired on EnVision™ Multilabel Reader (PerkinElmer, Santa Clara, CA, USA).

T1 sequence (Q96SW2 318-426 limits assumed): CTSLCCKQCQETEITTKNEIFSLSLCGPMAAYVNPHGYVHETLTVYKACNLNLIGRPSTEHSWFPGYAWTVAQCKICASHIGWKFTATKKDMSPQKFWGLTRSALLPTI
Chain of CRBN-DDB1 (CRBN_DDB1.7) (Q96SW2 81-442 limits assumed): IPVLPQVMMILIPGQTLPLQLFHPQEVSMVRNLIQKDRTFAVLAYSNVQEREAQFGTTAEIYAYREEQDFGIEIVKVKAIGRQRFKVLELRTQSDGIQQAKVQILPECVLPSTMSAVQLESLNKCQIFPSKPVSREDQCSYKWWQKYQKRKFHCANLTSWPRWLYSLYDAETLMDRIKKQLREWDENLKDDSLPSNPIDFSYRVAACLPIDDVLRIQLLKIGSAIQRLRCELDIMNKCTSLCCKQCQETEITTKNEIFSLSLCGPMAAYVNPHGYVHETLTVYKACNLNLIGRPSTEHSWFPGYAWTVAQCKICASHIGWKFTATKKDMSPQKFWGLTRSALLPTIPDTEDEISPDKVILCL

CC(C)(C)OC(=O)N1CCC(c2c(F)ccc3c2CCN3[C@@H]2CCC(=O)NC2=O)CC1 (single isomer, unassigned) [Compound 49-7]
Kd ([1]; indoline binders): < 100000 nM
Kd ([2]; indoline binders): < 100000 nM

CC(C)(C)OC(=O)N1CCC(c2c(F)cc3c(c2F)CCN3[C@H]2CCC(=O)NC2=O)CC1 (single isomer, unassigned) [Compound 50-8]
Kd ([1]; indoline binders): < 100000 nM
Kd ([2]; indoline binders): < 100000 nM

CC(C)(C)OC(=O)N1CCC(c2c(F)cc3c(c2F)CCN3[C@@H]2CCC(=O)NC2=O)CC1 (single isomer, unassigned) [Compound 50-9]
Kd ([1]; indoline binders): < 100000 nM
Kd ([2]; indoline binders): < 100000 nM

CC(C)(C)OC(=O)N1CCC(c2cccc3c2CCCN3[C@@H]2CCC(=O)NC2=O)CC1 (single isomer, unassigned) [Compound 59-5]
Kd ([1]; tetrahydroquinoline binders): < 100000 nM
Kd ([2]; tetrahydroquinoline binders): < 100000 nM

CC(C)(C)OC(=O)N1CCC(c2cccc3c2CCCN3[C@H]2CCC(=O)NC2=O)CC1 (single isomer, unassigned) [Compound 59-6]
Kd ([1]; tetrahydroquinoline binders): < 100000 nM
Kd ([2]; tetrahydroquinoline binders): < 100000 nM

CC(C)(C)OC(=O)N1CCC(c2cccc3c2OCCN3C2CCC(=O)NC2=O)CC1 (stereo not drawn) [Compound 9-6, tert-butyl 4-[4-(2,6-dioxo-3-piperidyl)-2,3-dihydro-1,4-benzoxazin-8-yl]piperidine-1-carboxylate]
FP CRBN_DDB1.3 0.05% PA, 0.1% BSA Ka nM ([1]; benzomorpholine binders): ** (≤100 μM is **)
Kd [3]: ≤ 100 µM

O=C1CCC(N2CCOc3c(C4CCNCC4)cccc32)C(=O)N1 (stereo not drawn) [Compound 9-11, 3-[8-(4-piperidyl)-2,3-dihydro-1,4-benzoxazin-4-yl]piperidine-2,6-dione]
Kd [3]: ≤ 100 µM

COC(=O)N1c2ccc3c(nc(Cc4ccccc4)n3[C@H]3CCC[C@H](C(=O)N4CCC(c5ccc6c(c5)OCCN6C5CCC(=O)NC5=O)CC4)C3)c2CC[C@@H]1C (stereo partly drawn) [Compound 32-14, methyl (7S)-2-benzyl-7-methyl-3-[(1S,3S)-3-[4-[4-(2,6-dioxo-3-piperidyl)-2,3-dihydro-1,4-benzoxazin-7-yl]piperidine-i-carbonyl]cyclohexyl]-8,9-dihydro-7H-imidazo[4,5-f]quinoline-6-carboxylate]
DC50 [4]: < 1 µM
Emax [4]: < 30%
